Experiments:
[1] = test system: NF-κB; assay: NF-κB activation assay in LPS stimulated CellSensor NF-κB-bla THP-1 reporter cells (FRET); assay type: cell-based, human; settings: THP-1 CellSensor NF-κB-bla reporter cells, LPS 10 ng/ml, 5 h and 16 h
Procedure: The CellSensor® NF-κB-bla THP-1 cell line has a stably integrated ß-lactamase reporter gene under the control of the nuclear factor kappa B (NF-κB) response element. […] In the presence of ß-lactamase, CCF4 was enzymatically cleaved and excitation at 409 nm produced a blue fluorescence signal (at 450 nm). The CellSensor® NF-κB-bla THP-1 cells were dispersed in 96-well plates (5 × 10^4 cells/200 µL/well) and incubated for 4 h. […] After incubation, the ß-lactamase substrate mixture (prepared according to the manufacturer’s protocol) was added to each well. Plates were incubated at room temperature in the dark for 2 h. Fluorescence was measured on a Tecan Infinite M200 plate reader (Tecan, Mannedorf, Switzerland) at an excitation wavelength of 405 nm and emission wavelengths of 465 and 535 nm. Emission ratios are calculated by dividing values from emission wavelength of 465 nm by those from emission wavelength of 535 nm. The response ratio was calculated as follows [(emission ratio of a test well)/average emission ratio of wells with vehicle (0.5% DMSO)] and values were normalized to the LPS control treated wells [response ratio of the compound/response ratio of LPS].

[2] = test system: THP-1 cells; assay: TNF stimulated CXCL8 release by THP-1 cells (ELISA); assay type: cell-based; settings: Homo sapiens, TNF 2 ng/ml, overnight, single agents (Figure 5A), read-out: IC50 for TNF stimulated CXCL8 release (titration experiment with DEX)
Procedure: THP-1 cells (10^5 cells/200 µL/well) and RA FLS (10^4/200 µL/well) were plated in 96 well plates and pre-treated with compound or vehicle for 1 h and then stimulated with either LPS (10 ng/ml), IL-1ß (2 ng/ml) or TNF (2 ng/ml for THP-1 and 1 ng/ml for RA FLS). After 18 h of incubation, supernatants were collected and the levels of cytokines and chemokines in the culture supernatants were measured by ELISA according to the manufacturer’s protocols (R&D systems, Minneapolis, MN).
Drug synergy analysis was performed using Isobologram plots which were calculated according to reported procedures using methods of Chou-Talalay ([Chou and Talalay, 1984]) to compute IC50 and determine synergism. IC50 is computed from the median effect equation. Synergism analysis is carried out using the Combination index (CI)-isobol method. Data analysis was performed using the CompuSyn software available on combisyn.com. Detailed methodology was used as described in a prior report ([Chou, 2006]). […] This is followed by CI-isobol method to quantitatively assess the synergism between these inhibitor drugs. […] From the median effect equation, the estimated dose (i.e., D) necessary to produce the inhibition (i.e. Fa, Fu) obtained by the combination was calculated. […]

| IC50 [2] | SMILES | Inhibition of LPS induced NF-κB activity [1] |
| --- | --- | --- |
| 0.3 µM | C[C@@H]1C[C@H]2[C@@H]3CCC4=CC(=O)C=C[C@]4(C)[C@@]3(F)[C@@H](O)C[C@]2(C)[C@@]1(O)C(=O)CO [DEX, dexamethasone] | inhibited NF-κB activity more potently at 16 h than 5 h |
|  | NC(=O)Nc1sc(-c2ccc(F)cc2)cc1C(N)=O [UTC, 5-(4-fluorophenyl)-2-ureidothiophene-3 carboxylic acid amide] | inhibited NF-κB activity at both time points |

From PMC7773657, “Identification of Compounds With Glucocorticoid Sparing Effects on Suppression of Chemokine and Cytokine Production by Rheumatoid Arthritis Fibroblast-Like Synoviocytes” (Frontiers in Pharmacology, 2020)
